Like-named read-outs stand apart in the source and are kept apart here.
How the values were obtained:
[1] = MTT cell viability assay, Hep G2 cells (serum-free DMEM); settings: human, Hep G2 cells, Cell viability
Description: (§1) Human hepatoma cell lines Hep G2 and Hep 3 were chosen as the in vitro models of hepatocytes and hepatoma, respectively.

Hep G2 cells = test: as above; settings: for IC50: Homo sapiens; for Cell viability (cell number): LOV 50 μM 48 hr
Description: as §1

Hep 3B/T2 cells = test: Tumor growth of Hep 3B/T2 cells in nude mice; assay type: in vivo, BALB/c-nu/nu nude mice
Description: The descriptive statistics were summarized as mean±STD. For statistical analysis, Student's t-test was used to determine significance of mean differences between groups.

Hep 3B cells = test: Cell cycle determination by flow cytometry, Hep 3B; assay type: cell-based, human; settings: cell line not given
[2] = Cycle 2 (Day 63), LOV 37.5 mg/kg/day p.o. days 28-34 and 49-55 and/or taxol 120 μg/kg/2 day i.p. day 36, 38, 40, 57, 59, 61

Q: Which results are given for `CC[C@H](C)C(=O)O[C@H]1C[C@@H](C)C=C2C=C[C@H](C)[C@H](CC[C@@H]3C[C@@H](O)CC(=O)O3)[C@H]21` [Lovastatin, lovastatin]?
A: viability at 48 h, 2 μM ([1]; LOV 2 μM, 48 hr): 90.7 ± 1.5%; viability at 72 h, 2 μM ([1]; LOV 2 μM, 72 hr): 86.2 ± 1.9%; viability at 48 h, 5 μM ([1]; LOV 5 μM, 48 hr): 87.2 ± 3.1%; viability at 48 h, 5 μM ([1]; LOV 5 μM, 48 hr, Table 4): 87.2 ± 3.1%; viability at 72 h, 5 μM ([1]; LOV 5 μM, 72 hr): 80.9 ± 4.4%; viability at 72 h, 5 μM ([1]; LOV 5 μM, 72 hr, Table 4): 80.9 ± 4.4%; viability at 96 h, 5 μM ([1]; LOV 5 μM, 96 hr): 63.2 ± 2%; viability at 120 h, 5 µM ([1]; LOV 5 μM, 120 hr): 55.1 ± 5%; viability at 48 h, 10 μM ([1]; LOV 10 μM, 48 hr): 85.8 ± 2.7%; viability at 48 h, 10 μM ([1]; LOV 10 μM, 48 hr, Table 4): 85.8 ± 2.7%; viability at 72 h, 10 μM ([1]; LOV 10 μM, 72 hr): 78.7 ± 5.3%; viability at 72 h, 10 μM ([1]; LOV 10 μM, 72 hr, Table 4): 78.7 ± 5.3%; viability at 96 h, 10 μM ([1]; LOV 10 μM, 96 hr): 55.1 ± 5%; viability at 120 h, 10 µM ([1]; LOV 10 μM, 120 hr): 33.8 ± 3.8%; viability at 48 h, 20 μM ([1]; LOV 20 μM, 48 hr): 79.9 ± 2.7%; viability at 72 h, 20 μM ([1]; LOV 20 μM, 72 hr): 75.3 ± 4.2%; viability at 72 h, 50 μM ([1]; LOV 50 μM 48 hr, then LOV 50 μM without MVA another 24 hr): 57.8 ± 6.2%; viability at 96 h, 50 µM ([1]; LOV 50 μM 48 hr, then LOV 50 μM without MVA another 48 hr): 12.7 ± 2.6%; viability at 120 h, 50 µM ([1]; LOV 50 μM 48 hr, then LOV 50 μM without MVA another 72 hr): 4 ± 0.6%; viability at 48 h, 50 μM ([1]; LOV 50 μM, 48 hr): 73.1 ± 3.2%; viability at 72 h, 50 μM ([1]; LOV 50 μM, 72 hr): 58.2 ± 4.2%; viability at 72 h, 1 μM ([1]; lovastatin 1 μM, 72 hr): 88.7 ± 1.3%; viability at 72 h, 2 μM ([1]; lovastatin 2 μM, 72 hr): 86.2 ± 1.9%; viability at 48 h, 5 μM ([1]; lovastatin 5 μM 48 hr, then no CAPE 48 hr): 75.2 ± 1.6%; viability at 48 h, 5 μM ([1]; lovastatin 5 μM 48 hr, then no taxol 48 hr): 85.8 ± 4.5%; viability at 72 h, 5 μM ([1]; lovastatin 5 μM 72 hr, then no taxol 48 hr): 81.3 ± 3.8%; viability at 72 h, 5 μM ([1]; lovastatin 5 μM 72 hr, then no taxol 72 hr): 67.2 ± 0.5%; viability at 72 h, 5 μM ([1]; lovastatin 5 μM alone, 72 hr, Table 23): 66.8 ± 1.5%; viability at 72 h, 5 μM ([1]; lovastatin 5 μM, 72 hr): 80.9 ± 4.4%; viability at 48 h, 10 μM ([1]; lovastatin 10 μM 48 hr, then no CAO 48 hr): 75 ± 3.3%; viability at 48 h, 10 μM ([1]; lovastatin 10 μM 48 hr, then no CAPE 48 hr): 66.7 ± 2.4%; viability at 10 µM ([1]; lovastatin 10 μM 48 hr, then no GL-M1 48 hr): 76.9 ± 2.6%; viability at 48 h, 10 μM ([1]; lovastatin 10 μM 48 hr, then no taxol 48 hr): 69.1 ± 3.1%; viability at 72 h, 10 μM ([1]; lovastatin 10 μM 72 hr, then no taxol 48 hr): 54.7 ± 5.9%; viability at 72 hr, 10 μM ([1]; lovastatin 10 μM 72 hr, then no taxol 72 hr): 48 ± 2.9%; viability at 72 h, 10 μM ([1]; lovastatin 10 μM alone, 72 hr, Table 23): 57.8 ± 11.2%; viability at 96 h, 10 μM ([1]; lovastatin 10 μM alone, 96 hr, Table 10): 51.9 ± 4.4%; viability at 96 h, 10 μM ([1]; lovastatin 10 μM alone, 96 hr, Table 21): 52.4 ± 5.5%; viability at 96 h, 10 μM ([1]; lovastatin 10 μM alone, 96 hr, Table 25): 50.3 ± 4.9%; viability at 72 h, 10 μM ([1]; lovastatin 10 μM, 72 hr): 78.7 ± 5.3%; viability at 72 h, 20 μM ([1]; lovastatin 20 μM, 72 hr): 75.3 ± 4.2%; viability at 48 h, 50 μM ([1]; lovastatin 50 μM 48 hr, then no taxol 48 hr): 14.6 ± 1.3%; viability at 72 h, 50 μM ([1]; lovastatin 50 μM, 72 hr): 58.2 ± 4.2%; IC50 (Hep G2 cells; HepG2, 48 h, read-out: IC50 (cell viability), 48 hr, Table 3): 97.2 ± 2.1 µM; IC50 (Hep G2 cells; HepG2, 48 h, read-out: IC50 (cell viability), 48 hr, Table 4): 97.2 µM; IC50 (Hep G2 cells; HepG2, 48 h, read-out: IC50 of lovastatin (cell viability), 48 hr treatment): 97.2 ± 2.1 µM; IC50 (Hep G2 cells; HepG2, 72 h, read-out: IC50 (cell viability), 72 hr, Table 3): 63.6 ± 3.7 µM; IC50 (Hep G2 cells; HepG2, 72 h, read-out: IC50 (cell viability), 72 hr, Table 4): 62.3 µM; IC50 (Hep G2 cells; HepG2, 72 h, read-out: IC50 of lovastatin (cell viability), 72 hr treatment): 62.3 ± 3.7 µM; IC50 (Hep G2 cells; HepG2, 96 h, read-out: IC50 (cell viability), 96 hr): 13.1 µM; IC50 (Hep G2 cells; HepG2, 120 h, read-out: IC50 (cell viability), 120 hr): 6.2 µM; Cell viability (cell number) (Hep G2 cells; then LOV 50 μM without MVA another 24 hr): 10.6 ± 0.7^b 1 × 10^3 cells; Cell viability (cell number) (Hep G2 cells; then LOV 50 μM without MVA another 48 hr): 3.6 ± 1.6^b 1 × 10^3 cells; Cell viability (cell number) (Hep G2 cells; then LOV 50 μM without MVA another 72 hr): 1.7 ± 0.5^b 1 × 10^3 cells; Tumor size (Hep 3B/T2 cells; Cycle 1 (Day 42), LOV 37.5 mg/kg/day p.o. days 28-34 and 49-55 and/or taxol 120 μg/kg/2 day i.p. day 36, 38, 40, 57, 59, 61): 0.533 cm^3; Tumor size (Hep 3B/T2 cells; [2]): 1.263 cm^3; percentage of inhibition of tumor size (Hep 3B/T2 cells; [2]): (−49.5%; Tumor size (Hep 3B/T2 cells; Day 15, LOV 75 mg/kg/day p.o. days 8-14 and/or taxol 120 μg/kg/day i.p. days 15-19, n = 3): 0.050 cm^3; Tumor size (Hep 3B/T2 cells; Day 20, LOV 75 mg/kg/day p.o. days 8-14 and/or taxol 120 μg/kg/day i.p. days 15-19, n = 3): 0.051 cm^3; Tumor size (Hep 3B/T2 cells; Day 23, LOV 75 mg/kg/day p.o. days 8-14 and/or taxol 120 μg/kg/day i.p. days 15-19, n = 3): 0.059 cm^3; Tumor size (1 × w^2 × 0.52 cm^3) Day 28 (Hep 3B/T2 cells; Day 28 after inoculation of 1 × 10^7 Hep 3B/T2 cells in male BALB/c-nu/nu nude mice, p.o. lovastatin 37.5 mg/kg/day (days 28-34, 49-55) and/or i.p. taxol 120 μg/kg/2 day (days 36, 38, 40, 57, 59, 61), mean ± SEM): 0.170 cm^3; Tumor size (Hep 3B/T2 cells; after two cycles: lovastatin fed 7 days, then paclitaxel injected 3 days (FIG. 38), mean±STD): 1.26±1.82 cm^3; cell cycle arrest stage (Hep 3B cells): G0/G1 arrest
